Columns and labels:
Assay type in all cases: physicochemical
[1] = Hygroscopicity by dynamic vapor sorption (DVS); settings: for Weight gain from 0 to 60% RH / Weight gain from 0 to 70% RH: DVS, 25° C.; for Crystalline state after DVS: XRPD before and after DVS test
Method: Dynamic Vapor Sorption (DVS) was measured via an SMS (Surface Measurement Systems Ltd.) intrinsic DVS instrument. The instrument control software is DVS-Intrinsic control software. Typical Parameters for DVS test are as follows: • Temperature: 25° C. • Gas and flow rate: N2, 200 mL/min • RH range: 0% RH to 95% RH Dynamic vapor sorption (DVS) analyzer was applied to evaluate the hygroscopicity of amorphous with a certain amount of sample. The weight gains at each relative humidity were recorded in a cycle of 0-95% RH-0. […] Dynamic vapor sorption (DVS) analyzer was applied to evaluate hygroscopicity of Form CSI with a certain amount of sample. The weight gains at each relative humidity were recorded in a cycle of 0-95% RH-0. Dynamic vapor sorption (DVS) analyzer was applied to evaluate hygroscopicity of Form CSII with a certain amount of sample. The weight gains at each relative humidity were recorded in a cycle of 50% RH-95% RH-0%-95% RH. Dynamic vapor sorption (DVS) analyzer was applied to evaluate hygroscopicity of Form CSIV and prior art amorphous with certain amounts of samples. The weight gains at each relative humidity were recorded in a cycle of 0-95% RH-0.

[2] = Physical and chemical stability on storage (XRPD for crystalline form, HPLC for purity)
Method: A certain amount of Form CSI of the present disclosure was stored under different conditions of 25° C./60% RH, 40° C./75% RH, and 60° C./75% RH. Crystalline form and chemical purity were checked by XRPD and HPLC, respectively. Open packaged: Put the sample into a glass vial, cover the vial with aluminum toil, and punch 5-10 holes in the foil. Sealed packaged: Put the sample into a glass vial, cap the vial tightly, and seal the vial in an aluminum foil bag. A certain amount of Form CSII of the present disclosure was stored under different conditions of 25° C./60% RH, 40° C./75% RH, and 60° C./75% RH. Crystalline form and chemical purity were checked by XRPD and HPLC, respectively. A certain amount of Form CSIV of the present disclosure was stored under different conditions of 25° C./60% RH, 40° C./75% RH, and 60° C./75% RH. Crystalline form and chemical purity were checked by XRPD and HPLC, respectively.

[3] = Adhesiveness (material sticking to punch, ENERPAC manual tablet press); settings: about 30 mg, φ8 mm round tooling, 10 kN, held 30 s
Method: ENERPAC manual tablet press was used for testing. Approximately 30 mg of Form CSI was weighed and then added into the dies of φ8 mm round tooling, compressed at 10 kN and held for 30 s. The punch was weighed and the amount of material sticking to the punch was calculated. The compression was repeated twice and the maximum amount and average amount of material sticking to the punch during the compression were recorded. […] ENERPAC manual tablet press was used for testing. Approximately 30 mg of Form CSII was weighed and then added into the dies of φ8 mm round tooling, compressed at 10 kN and held for 30 s. The punch was weighed and amount of material sticking to the punch was calculated. The compression was repeated twice and the maximum amount and average amount of material sticking to the punch during the compression were recorded. […] ENERPAC manual tablet press was used for testing. Approximately 30 mg of Form CSIV was weighed and then added into the dies of φ8 mm round tooling, compressed at 10 KN and held for 30 s. The punch was weighed and amount of material sticking to the punch was calculated. The compression was repeated twice and the maximum amount and average amount of material sticking to the punch during the compression were recorded.

[4] = Appearance of powder on sulphuric acid paper
Source text: A certain amount of Form CSI was weighed and put on sulphuric acid paper to observe the appearance The appearance of Form CSI is shown in FIG. 15. […] A certain amount of Form CSII was weighed and put in sulphuric acid paper, and the powder state was observed. […] A certain amount of Form CSIV was weighed and put in sulphuric acid paper, and the powder state was observed.

[5] = Particle size distribution (Mastersizer 3000, wet mode); settings: after 30 seconds of ultrasonication, Isopar G
Method: The particle size distribution data in the present disclosure were acquired by an Mastersizer 3000 laser particle size analyzer of Malvern. The test was carried out in wet mode, using a Hydro MV dispersion device, and the dispersant was Isopar G. The parameters are shown in Table 3. A certain amount of Form CSI was added into a glass vial with about a certain volume of Isopar G (containing 0.2% lecithin). The mixture was mixed thoroughly and transferred into the Hydro MV dispersing device. The experiment was started when the obscuration was in appropriate range. The particle size distribution was tested after 30 seconds of ultrasonication.

[6] = Flowability (compressibility index from bulk and tapped density)
Method: Compressibility index is usually utilized to evaluate the flowability of powder or granules during the drug product process. Compressibility index test method is as follows: a certain amount of powder was added into a measuring cylinder and bulk volume was recorded. Then the powder was tapped to make it in the tightest state and the tapped volume was recorded. The bulk density (ρ0) and tapped density (ρf) were calculated and compressibility index was calculated according to c=(ρf−ρ0)/ρf.

[7] = Physical stability upon tableting under different pressures (XRPD)
Source text: A certain amount of Form CSII was compressed into tablet under different pressures with suitable tableting die. Crystalline form before and after tableting were checked by XRPD. […] A certain amount of Form CSIV was compressed into tablet under different pressures with suitable tableting die. Crystalline form before and after tableting were checked by XRPD.

[8] = Physical stability upon manual grinding (XRPD); settings: ground manually for 5 minutes in a mortar
Method: Form CSII was grounded manually for 5 minutes in a mortar. […] Form CSIV was grounded manually for 5 minutes in a mortar.

[9] = 25° C./60% RH, open packaged, 6 months
[10] = 25° C./60% RH, sealed packaged, 6 months
[11] = 40° C./75% RH, open packaged, 6 months
[12] = 40° C./75% RH, sealed packaged, 6 months
[13] = 60° C./75% RH, open packaged, 3 months
[14] = 60° C./75% RH, sealed packaged, 3 months
[15] = 25° C./60% RH, open packaged, 3 months
[16] = 25° C./60% RH, sealed packaged, 3 months
[17] = 40° C./75% RH, open packaged, 3 months
[18] = 40° C./75% RH, sealed packaged, 3 months
[19] = 60° C./75% RH, open packaged, one month
[20] = 60° C./75% RH, sealed packaged, one month

For `O=C(O)CCCc1cc2cc(Cl)ccc2n1S(=O)(=O)c1ccc2ncsc2c1` [Form CSI, 5-Chloro-1-[(6-benzothiazolyl)sulfonyl]-1H-indole-2-butanoic acid], the “Weight gain from 0 to 60% RH” value ([1]; 0 to 60% RH) was 0.17%, the “Weight gain from 0 to 70% RH” value ([1]; 0 to 70% RH) was 0.17% and the “Crystalline state after DVS” value [1] was “remains unchanged”. For the same molecule, the “Time for which the form is stable (crystalline state doesn't change)” value (shortened to “Time … (crystalline state doesn't change)”) ([2]; 25° C./60% RH) was “at least 6 months”, the Form after storage [2, 9] was “Form CSI” and the Purity change [2, 9] was 0.02%. For the same molecule, the Form after storage [2, 10] was “Form CSI”, the Purity change [2, 10] was 0.03% and the “Time … (crystalline state doesn't change)” value ([2]; 40° C./75% RH) was “at least 6 months”. The Form after storage [2, 11] was “Form CSI”, the Purity change [2, 11] was 0.05% and the Form after storage [2, 12] was “Form CSI”. For the same molecule, the Purity change [2, 12] was 0.01%, the “Time … (crystalline state doesn't change)” value ([2]; 60° C./75% RH) was “at least 3 months” and the Form after storage [2, 13] was “Form CSI”. For the same molecule, the Purity change [2, 13] was 0.08%, the Form after storage [2, 14] was “Form CSI” and the Purity change [2, 14] was 0.07%. The Average adhesion amount [3] was 0.45 mg, the Appearance of powder [4] was “powdery with uniformly dispersed and has no adhesion phenomenon” and the D10 [5] was 0.725 μm. It also gave a D50 [5] of 1.89 μm, a D90 [5] of 7.15 μm and an MV [5] of 4.54 μm. For the same molecule, the Bulk density [6] was 0.405 g/mL, the Tapped density [6] was 0.526 g/mL and the Flowability ([6]; class by compressibility index, ICH Q4B Annex 13) was “Passable (21-25)”.

In the case of `O=C(O)CCCc1cc2cc(Cl)ccc2n1S(=O)(=O)c1ccc2ncsc2c1` [amorphous, 5-Chloro-1-[(6-benzothiazolyl)sulfonyl]-1H-indole-2-butanoic acid, reference compound], the “Weight gain of amorphous relative to that of Form CSI” value ([1]; 0 to 60% RH) is reported as “about 6 times”, the “Weight gain of amorphous relative to that of Form CSII” value ([1]; 0 to 60% RH) is reported as “about 4 times” and the “Weight gain of amorphous relative to that of Form CSIV” value ([1]; 0 to 60% RH and 0 to 70% RH) is reported as “about 4 times”. The “Weight gain of amorphous relative to that of Form CSI” value ([1]; 0 to 70% RH) was about 7 times, the “Weight gain of amorphous relative to that of Form CSII” value ([1]; 0 to 70% RH) was about 5 times and the “Weight gain from 0 to 60% RH” value ([1]; 0 to 60% RH) was 0.94%. The “Weight gain from 0 to 60% RH” value ([1]; 0 to 60% RH, listed as prior art amorphous) was 0.94%, the “Weight gain from 0 to 70% RH” value ([1]; 0 to 70% RH) was 1.18% and the “Weight gain from 0 to 70% RH” value ([1]; 0 to 70% RH, listed as prior art amorphous) was 1.18%.

With `O=C(O)CCCc1cc2cc(Cl)ccc2n1S(=O)(=O)c1ccc2ncsc2c1` [Form CSII, 5-Chloro-1-[(6-benzothiazolyl)sulfonyl]-1H-indole-2-butanoic acid] the “Weight gain from 0 to 60% RH” value ([1]; 0 to 60% RH) was 0.21%, the “Weight gain from 0 to 70% RH” value ([1]; 0 to 70% RH) was 0.27% and the “Crystalline state after DVS” value [1] was “remains unchanged”. The “Time … (crystalline state doesn't change)” value ([2]; 25° C./60% RH) was “at least 3 months”, the Form after storage [2, 15] was “Form CSII” and the Purity change [2, 15] was 0.09%. For the same molecule, the Form after storage [2, 16] was “Form CSII”, the Purity change [2, 16] was 0.06% and the “Time … (crystalline state doesn't change)” value ([2]; 40° C./75% RH) was “at least 3 months”. The Form after storage [2, 17] was “Form CSII”, the Purity change [2, 17] was 0.07% and the Form after storage [2, 18] was “Form CSII”. For the same molecule, the Purity change [2, 18] was 0.01%, the “Time … (crystalline state doesn't change)” value ([2]; 60° C./75% RH) was “at least one month” and the Form after storage [2, 19] was “Form CSII”. For the same molecule, the Purity change [2, 19] was 0.05%, the Average adhesion amount [3] was 0.20 mg and the “Solid form after tableting” value ([7]; Pressure 5 kN) was “Form CSII”. The “Solid form after tableting” value ([7]; Pressure 10 kN) was “Form CSII”, the “Solid form after tableting” value ([7]; Pressure 20 kN) was “Form CSII” and the Appearance of powder [4] was “powdery with uniformly dispersed and has no adhesion phenomenon”. For the same molecule, the “Crystalline state after grinding” value [8] was “remains unchanged”.

For `O=C(O)CCCc1cc2cc(Cl)ccc2n1S(=O)(=O)c1ccc2ncsc2c1` [Form CSIV, 5-Chloro-1-[(6-benzothiazolyl)sulfonyl]-1H-indole-2-butanoic acid], the “Weight gain from 0 to 60% RH” value ([1]; 0 to 60% RH) was 0.23%, the “Weight gain from 0 to 70% RH” value ([1]; 0 to 70% RH) was 0.27% and the “Crystalline state after DVS” value [1] was “remains unchanged”. The “Time … (crystalline state doesn't change)” value ([2]; 25° C./60% RH) was “at least 3 months”, the Form after storage [2, 15] was “Form CSIV” and the Purity change [2, 15] was 0.02%. The Form after storage [2, 16] was “Form CSIV”, the Purity change [2, 16] was 0.04% and the “Time … (crystalline state doesn't change)” value ([2]; 40° C./75% RH) was “at least 3 months”. For the same molecule, the Form after storage [2, 17] was “Form CSIV”, the Purity change [2, 17] was 0.00% and the Form after storage [2, 18] was “Form CSIV”. The Purity change [2, 18] was 0.03%, the “Time … (crystalline state doesn't change)” value ([2]; 60° C./75% RH) was “at least one month” and the Form after storage [2, 19] was “Form CSIV”. For the same molecule, the Purity change [2, 19] was 0.04%, the Form after storage [2, 20] was “Form CSIV” and the Purity change [2, 20] was 0.06%. The Average adhesion amount [3] was 0.05 mg, the “Solid form after tableting” value ([7]; Pressure 5 kN) was “Form CSIV” and the “Solid form after tableting” value ([7]; Pressure 10 kN) was “Form CSIV”. For the same molecule, the “Solid form after tableting” value ([7]; Pressure 20 kN) was “Form CSIV”, the Appearance of powder [4] was “powdery with uniformly dispersed and has no adhesion phenomenon” and the “Crystalline state after grinding” value [8] was “remains unchanged”.

— patent US12686678B2, “Crystal form of Lanifibranor, preparation method therefor, and use thereof” (INVENTIVA, priority 2020, dated 2026)
